# Assay results taken from ChEMBL document CHEMBL3045191, “Effect of soil type on adsorption-desorption, mobility, and activity of the herbicide norflurazon” (J Agric Food Chem, 2004).
# What was measured:
# Format in all cases: functional, organism-based
# [1] = system: Glycine max; assay: Herbicidal activity against Glycine max (soybean) grown in clay soil at pH 8.0 assessed as chlorophyll bleaching effect on shoots compound treated to soil measured after 10 days relative to untreated control
# [2] = system: Glycine max; assay: Herbicidal activity against Glycine max (soybean) grown in sandy clay loam soil at pH 5.7 assessed as chlorophyll bleaching effect on shoots compound treated to soil measured after 10 days relative to untreated control
# [3] = system: Glycine max; assay: Herbicidal activity against Glycine max (soybean) grown in loam soil at pH 5.8 assessed as chlorophyll bleaching effect on shoots compound treated to soil measured after 10 days relative to untreated control
# [4] = system: Glycine max; assay: Herbicidal activity against Glycine max (soybean) grown in sandy soil at pH 8.0 assessed as chlorophyll bleaching effect on shoots compound treated to soil measured after 10 days relative to untreated control
# [5] = system: Glycine max; assay: Herbicidal activity against Glycine max (soybean) grown in slit loam soil at pH 6.0 assessed as chlorophyll bleaching effect on shoots compound treated to soil measured after 10 days relative to untreated control
# [6] = system: Glycine max; assay: Herbicidal activity against Glycine max (soybean) grown in sandy clay loam soil at pH 7.9 assessed as chlorophyll bleaching effect on shoots compound treated to soil measured after 10 days relative to untreated control
# [7] = system: Glycine max; assay: Herbicidal activity against Glycine max (soybean) grown in slit loam soil at pH 7.6 assessed as chlorophyll bleaching effect on shoots compound treated to soil measured after 10 days relative to untreated control
# [8] = system: Glycine max; assay: Herbicidal activity against Glycine max (soybean) grown in loam soil at pH 5.5 assessed as chlorophyll bleaching effect on shoots compound treated to soil measured after 10 days relative to untreated control
smiles,measurement,setting,value
CNc1cnn(-c2cccc(C(F)(F)F)c2)c(=O)c1Cl [NORFLURAZONE],IC50,[1],1.04 mg/kg
same,IC50,[2],0.43 mg/kg
same,IC50,[3],1.98 mg/kg
same,IC50,[4],0.08 mg/kg
same,IC50,[5],1.94 mg/kg
same,IC50,[6],0.22 mg/kg
same,IC50,[7],1.68 mg/kg
same,IC50,[8],0.87 mg/kg
